# Measurements taken from patent US11773094B2, “Farnesoid X receptor agonists and uses thereof” (Metacrine, Inc., priority 2018, dated 2023).
# Molecular target: T1, hFXR (Homo sapiens, UniProt Q96RI1)
# T1 construct: expressed in transfected cells; host or cells: CV-1 cells
# T1 sequence (Q96RI1 1-486): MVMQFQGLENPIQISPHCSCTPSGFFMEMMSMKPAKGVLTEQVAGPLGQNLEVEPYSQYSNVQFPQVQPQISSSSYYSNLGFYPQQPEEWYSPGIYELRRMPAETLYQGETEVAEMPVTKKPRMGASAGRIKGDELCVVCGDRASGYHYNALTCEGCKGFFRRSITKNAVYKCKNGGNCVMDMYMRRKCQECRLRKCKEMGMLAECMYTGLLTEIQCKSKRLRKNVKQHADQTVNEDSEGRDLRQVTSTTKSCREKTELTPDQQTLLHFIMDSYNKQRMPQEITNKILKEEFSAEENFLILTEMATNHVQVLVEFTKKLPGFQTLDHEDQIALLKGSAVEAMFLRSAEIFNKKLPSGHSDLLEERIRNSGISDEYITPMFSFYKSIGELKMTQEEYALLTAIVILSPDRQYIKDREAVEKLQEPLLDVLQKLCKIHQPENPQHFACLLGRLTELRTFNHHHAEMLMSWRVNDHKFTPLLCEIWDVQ
# T1 sequence (P19793 1-462 partner): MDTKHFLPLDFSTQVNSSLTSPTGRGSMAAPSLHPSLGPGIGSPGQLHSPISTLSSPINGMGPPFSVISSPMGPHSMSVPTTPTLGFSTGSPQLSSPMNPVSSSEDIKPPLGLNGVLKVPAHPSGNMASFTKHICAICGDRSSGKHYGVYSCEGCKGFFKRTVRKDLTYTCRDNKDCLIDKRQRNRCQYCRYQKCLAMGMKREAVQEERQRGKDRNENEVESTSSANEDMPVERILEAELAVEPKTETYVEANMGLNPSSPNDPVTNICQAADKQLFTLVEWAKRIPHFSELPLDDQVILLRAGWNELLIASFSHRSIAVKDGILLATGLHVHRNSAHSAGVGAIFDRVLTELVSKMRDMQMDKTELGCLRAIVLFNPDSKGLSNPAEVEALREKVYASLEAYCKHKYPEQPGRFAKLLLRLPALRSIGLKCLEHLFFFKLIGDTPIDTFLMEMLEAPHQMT
# Experiment: In Vitro FXR Assay (TK): TK-ECRE-luc reporter in transfected CV-1 cells
# Assay type: cell-based
# Settings: CV-1 cells transfected with hFXR, hRXR, pCMX-YFP, 18 hrs incubation, luminescence
# Description: Example B-1: In Vitro FXR Assay (TK)
# CV-1 cells were seeded at a density of 2,000,000 cells in a T175 flask with DMEM+10% charcoal double-stripped FBS and incubated at 37° C. in 5% CO2 for 18 h (O/N).
# After 18 h of incubation, the medium in the T175 flask was changed with fresh DMEM+10% charcoal super-stripped serum. In a polypropylene tube, 2500 μL OptiMEM (Life Technologies, Cat #31985-062) was combined with expression plasmids for hFXR, hRXR, TK-ECRE-luc and pCMX-YFP. The tube was then briefly vortexed and incubated at room temperature for 5 minutes. Transfection reagent (X-tremeGENE HP from Roche, Cat #06 366 236 001) was added to the OptiMEM/plasmid mixture vortexed and incubated at room temperature for 20 minutes. Following incubation, the transfection reagent/DNA mixture complex was added to cells in the T175 flask and the cells were incubated at 37° C. in 5% CO2 for 18 h (O/N).
# Compounds were serially diluted in DMSO and added to transfected CV-1 cells. The cells were then incubated for 18 hrs. The next day cells were lysed and examined for luminescence.
row,Compound,EC50
1,"COc1ccc(C23CCC(CN(c4cc(-c5coc(C(C)(C)C)n5)ccn4)C(=O)[C@H]4CC[C@H](OC(=O)N5CCC(N(C)C)C5)CC4)(CC2)CC3)cc1C (stereo partly drawn) [Compound 2.16, 4-((4-(2-(tert-Butyl)oxazol-4-yl)pyridin-2-yl)((4-(4-methoxy-3-methylphenyl)bicyclo[2.2.2]octan-1-yl)methyl)carbamoyl)cyclohexyl 3-(dimethylamino)pyrrolidine- trans-1-carboxylate]",10 to 1000 nM
2,"COc1ccc(C23CCC(CN(c4cc(-c5coc(C(C)(C)C)n5)ccn4)C(=O)[C@H]4CC[C@H](OC(=O)NC5COC5)CC4)(CC2)CC3)cc1C [Compound 2.18, 4-((4-(2-(tert-Butyl)oxazol-4-yl)pyridin-2-yl)((4-(4-methoxy-3-methylphenyl)bicyclo[2.2.2]octan-1-yl)methyl)carbamoyl) (trans-cyclohexyl) oxetan-3-ylcarbamate]",10 to 1000 nM
3,"COc1ccc(C23CCC(CN(c4cc(-c5cnn(C(C)(C)C)c5)ccn4)C(=O)[C@H]4CC[C@H](OC(=O)N5CCC(O)CC5)CC4)(CC2)CC3)cc1C [Compound 2.27, 4-((4-(1-(tert-Butyl)-1H-pyrazol-4-yl)pyridin-2-yl)((4-(4-methoxy-3-methylphenyl)bicyclo[2.2.2]octan-1-yl)methyl)carbamoyl)cyclohexyl 4-hydroxypiperidine-trans-1-carboxylate]",≤ 10 nM
4,"COc1ccc(C23CCC(CN(c4cc(-c5cnn(C(C)(C)C)c5)ccn4)C(=O)[C@H]4CC[C@H](OC(=O)NC5COC5)CC4)(CC2)CC3)cc1C [Compound 2.28, 4-((4-(1-(tert-Butyl)-1H-pyrazol-4-yl)pyridin-2-yl)((4-(4-methoxy-3-methylphenyl)bicyclo[2.2.2]octan-1-yl)methyl)carbamoyl) (trans-cyclohexyl) oxetan-3-ylcarbamate]",≤ 10 nM
5,"COc1ccc(C23CCC(CN(c4cc(-c5cnn(C(C)(C)C)c5)ccn4)C(=O)[C@H]4CC[C@H](OC(=O)NC5CCSCC5)CC4)(CC2)CC3)cc1C [Compound 2.29, 4-((4-(1-(tert-Butyl)-1H-pyrazol-4-yl)pyridin-2-yl)((4-(4-methoxy-3-methylphenyl)bicyclo[2.2.2]octan-1-yl)methyl)carbamoyl)cyclohexyl trans-(tetrahydro-2H-thiopyran-4-yl)carbamate]",10 to 1000 nM
6,"COc1ccc(C23CCC(CN(c4cc(-c5cnn(C(C)(C)C)c5)ccn4)C(=O)[C@H]4CC[C@H](OC(=O)NCCO)CC4)(CC2)CC3)cc1C [Compound 2.30, 4-((4-(1-(tert-Butyl)-1H-pyrazol-4-yl)pyridin-2-yl)((4-(4-methoxy-3-methylphenyl)bicyclo[2.2.2]octan-1-yl)methyl)carbamoyl)cyclohexyl (2-hydroxyethyl)trans-carbamate]",≤ 10 nM
7,"COc1ccc(C23CCC(CN(c4cc(-c5cnn(C(C)(C)C)c5)ccn4)C(=O)[C@H]4CC[C@H](OC(=O)NCCCO)CC4)(CC2)CC3)cc1C [Compound 2.31, 4-((4-(1-(tert-Butyl)-1H-pyrazol-4-yl)pyridin-2-yl)((4-(4-methoxy-3-methylphenyl)bicyclo[2.2.2]octan-1-yl)methyl)carbamoyl) (trans-cyclohexyl) (3-hydroxypropyl)carbamate]",≤ 10 nM
8,"COc1ccc(C23CCC(CN(c4cc(-c5cnn(C(C)(C)C)c5)ccn4)C(=O)[C@H]4CC[C@H](OC(=O)NCCC(C)(C)O)CC4)(CC2)CC3)cc1C [Compound 2.32, 4-((4-(1-(tert-Butyl)-1H-pyrazol-4-yl)pyridin-2-yl)((4-(4-methoxy-3-methylphenyl)bicyclo[2.2.2]octan-1-yl)methyl)carbamoyl) (trans-cyclohexyl) (3-hvdroxy-3-methylbutyl)carbamate]",≤ 10 nM

# More lines, now with the values ahead:
row,EC50,Compound
1,≤ 10 nM,"COc1ccc(C23CCC(CN(c4cc(-c5coc(C(C)(C)C)n5)ccn4)C(=O)[C@H]4CC[C@H](OC(=O)N5CCC(O)CC5)CC4)(CC2)CC3)cc1C [Compound 2.17, 4-((4-(2-(tert-Butyl)oxazol-4-yl)pyridin-2-yl)((4-(4-methoxy-3-methylphenyl)bicyclo[2.2.2]octan-1-yl)methyl)carbamoyl)cyclohexyl 4-hydroxypiperidine- trans-1-carboxylate]"
2,≤ 10 nM,"COc1ccc(C23CCC(CN(c4cc(-c5coc(C(C)(C)C)n5)ccn4)C(=O)[C@H]4CC[C@H](OC(=O)NCCO)CC4)(CC2)CC3)cc1C [Compound 2.19, 4-((4-(2-(tert-Butyl)oxazol-4-yl)pyridin-2-yl)((4-(4-methoxy-3-methylphenyl)bicyclo[2.2.2]octan-1-yl)methyl)carbamoyl)cyclohexyl (2-hydroxyethyl)trans-carbamate]"
3,≤ 10 nM,"COc1ccc(C23CCC(CN(c4cc(-c5coc(C(C)(C)C)n5)ccn4)C(=O)[C@H]4CC[C@H](OC(=O)NCCC(C)(C)O)CC4)(CC2)CC3)cc1C [Compound 2.20, 4-((4-(2-(tert-Butyl)oxazol-4-yl)pyridin-2-yl)((4-(4-methoxy-3-methylphenyl)bicyclo[2.2.2]octan-1-yl)methyl)carbamoyl) (trans-cyclohexyl) (3-hydroxy-3-methylbutyl)carbamate]"
4,≤ 10 nM,"COc1ccc(C23CCC(CN(c4cc(-c5cnn(C(C)(C)C)c5)ccn4)C(=O)[C@H]4CC[C@H](OC(=O)N5CC[C@H]5CO)CC4)(CC2)CC3)cc1C [Compound 2.21, (S)-4-((4-(1-(tert-Butyl)-1H-pyrazol-4-yl)pyridin-2-yl)((4-(4-methoxy-3-methylphenyl)bicyclo[2.2.2]octan-1-yl)methyl)carbamoyl)cyclohexyl 2-(hydroxymethyl)azetidine- trans-1-carboxylate]"
5,≤ 10 nM,"COc1ccc(C23CCC(CN(c4cc(-c5cnn(C(C)(C)C)c5)ccn4)C(=O)[C@H]4CC[C@H](OC(=O)N5CC(C)(O)C5)CC4)(CC2)CC3)cc1C [Compound 2.22, 4-((4-(1-(tert-Butyl)-1H-pyrazol-4-yl)pyridin-2-yl)((4-(4-methoxy-3-methylphenyl)bicyclo[2.2.2]octan-1-yl)methyl)carbamoyl) (trans-cyclohexyl) 3-hydroxy-3-methylazetidine-1-carboxylate]"
6,≤ 10 nM,"COc1ccc(C23CCC(CN(c4cc(-c5cnn(C(C)(C)C)c5)ccn4)C(=O)[C@H]4CC[C@H](OC(=O)N5CC(S(C)(=O)=O)C5)CC4)(CC2)CC3)cc1C [Compound 2.23, 4-((4-(1-(tert-Butyl)-1H-pyrazol-4-yl)pyridin-2-yl)((4-(4-methoxy-3-methylphenyl)bicyclo[2.2.2]octan-1-yl)methyl)carbamoyl) (trans-cyclohexyl) 3-(methylsulfonyl)azetidine-1-carboxylate]"
7,≤ 10 nM,"COc1ccc(C23CCC(CN(c4cc(-c5cnn(C(C)(C)C)c5)ccn4)C(=O)[C@H]4CC[C@H](OC(=O)N5CC(CS(C)(=O)=O)C5)CC4)(CC2)CC3)cc1C [Compound 2.24, 4-((4-(1-(tert-Butyl)-1H-pyrazol-4-yl)pyridin-2-yl)((4-(4-methoxy-3-methylphenyl)bicyclo[2.2.2]octan-1-yl)methyl)carbamoyl) (trans-cyclohexyl) 3-((methylsulfonyl)methyl) azetidine-1-carboxylate]"
8,≤ 10 nM,"COc1ccc(C23CCC(CN(c4cc(-c5cnn(C(C)(C)C)c5)ccn4)C(=O)[C@H]4CC[C@H](OC(=O)N5CC(OCCO)C5)CC4)(CC2)CC3)cc1C [Compound 2.25, 4-((4-(1-(tert-Butyl)-1H-pyrazol-4-yl)pyridin-2-yl)((4-(4-methoxy-3-methylphenyl)bicyclo[2.2.2]octan-1-yl)methyl)carbamoyl) (trans-cyclohexyl) 3-(2-hydroxyethoxy)azetidine-1-carboxylate]"
9,≤ 10 nM,"COc1ccc(C23CCC(CN(c4cc(-c5cnn(C(C)(C)C)c5)ccn4)C(=O)[C@H]4CC[C@H](OC(=O)N5CCC(N(C)C)C5)CC4)(CC2)CC3)cc1C (stereo partly drawn) [Compound 2.26, 4-((4-(1-(tert-Butyl)-1H-pyrazol-4-yl)pyridin-2-yl)((4-(4-methoxy-3-methylphenyl)bicyclo[2.2.2]octan-1-yl)methyl)carbamoyl)cyclohexyl 3-(dimethylamino)pyrrolidine- trans-1-carboxylate]"
